This is an account of results in US20160030522A1, “COMBINATION THERAPY TO IMPROVE SOFT TISSUE HEALING, FAT GRAFT HEALING, ENDOCHONDRAL BONE HEALING AND OSTEOINTEGRATION” (priority 2013, published 2016).

Molecules are shown by their SMILES.

For the assay, the system named is trephine defect. In words: Bony ingrowth / regeneration in the trephine defect after systemic treatment of mice. The format is in vivo. Particulars: systemic administration.

Description: Mice and Injury Model: All experiments are performed in accordance with the IACUC guidelines. C57BL/6J wild-type mice aged 8-12 weeks are purchased from Jackson Laboratories (Bar Harbor, Me.). Mice are randomized to receive one of #1) no injury; #2) an implant stud having a porous polyethylene-polypropylene coating placed in a defect in the distal femur. […] Treatment Groups: Mice in each of the 4 experimental groups are randomly assigned to receive once daily one of: #1) saline i.p. injection; #2) AMD3100 (10 mg/kg, i.p.; PLERIXAFOR®; Genzyme Corp., Cambridge, Mass.) injection; #3) Teriparatide (0.285 mcg/kg, i.p.; FORTEO®; Eli Lilly and Company, Indianapolis, Ind.); or #4) AMD3100 (10 mg/kg, i.p.; PLERIXAFOR®; Genzyme Corp., Cambridge, Mass.); and teriparatide (0.285 mcg/kg, i.p.; FORTEO®; Eli Lilly and Company, Indianapolis, Ind.). […] BM is flushed from mouse long bones using PBS/10% FBS/5% EDTA, as previously described. Mononuclear cells (MNCs) from the peripheral blood and BM are isolated by density gradient centrifugation using Histopaque 1083 (Sigma-Aldrich; St. Louis, Mo.). […] Adobe Photoshop CS3 is used to segment and quantify positive CD31 staining. The vascular density of mouse wounds is determined by quantifying the total area of CD31+ staining (red) per megapixel (1×106 pixels square area) of wound stained.

Take `c1cc(CN2CCCNCCNCCCNCC2)ccc1CN1CCCNCCNCCCNCC1` [AMD3100]: the “bony ingrowth / bony regeneration” value came to 59.7%.
With `CC[C@H](C)[C@H](NC(=O)[C@H](CCC(=O)O)NC(=O)[C@H](CO)NC(=O)[C@@H](NC(=O)[C@@H](N)CO)C(C)C)C(=O)N[C@@H](CCC(N)=O)C(=O)N[C@@H](CC(C)C)C(=O)N[C@@H](CCSC)C(=O)N[C@@H](Cc1cnc[nH]1)C(=O)N[C@@H](CC(N)=O)C(=O)N[C@@H](CC(C)C)C(=O)NCC(=O)N[C@@H](CCCCN)C(=O)N[C@@H](Cc1cnc[nH]1)C(=O)N[C@@H](CC(C)C)C(=O)N[C@@H](CC(N)=O)C(=O)N[C@@H](CO)C(=O)N[C@@H](CCSC)C(=O)N[C@@H](CCC(=O)O)C(=O)N[C@@H](CCCN=C(N)N)C(=O)N[C@H](C(=O)N[C@@H](CCC(=O)O)C(=O)N[C@@H](Cc1c[nH]c2ccccc12)C(=O)N[C@@H](CC(C)C)C(=O)N[C@@H](CCCN=C(N)N)C(=O)N[C@@H](CCCCN)C(=O)N[C@@H](CCCCN)C(=O)N[C@@H](CC(C)C)C(=O)N[C@@H](CCC(N)=O)C(=O)N[C@@H](CC(=O)O)C(=O)N[C@H](C(=O)N[C@@H](Cc1cnc[nH]1)C(=O)N[C@@H](CC(N)=O)C(=O)N[C@@H](Cc1ccccc1)C(=O)O)C(C)C)C(C)C` [PTH], the “bony ingrowth / bony regeneration” value is recorded as 56%.
